Test results: article PMC8698932 (2021)

Experiments:
[1] = test system: GG1 (DNA, G4) GGGCGGGCGCGAGGGAGGGT; experiment: CD melting, 261 nm; conditions: 5 mM KCl; 10 mM KH2PO4 pH 7; 2 µM DNA, 8 µM compound
[2] = test system: DL40 (DNA, G4) GGTTTTGGCAGGGTTTTGGT; experiment: CD melting, 291 nm; conditions: 5 mM KCl; 10 mM KH2PO4 pH 7; 2 µM DNA, 8 µM compound
[3] = test system: nmyc01 (DNA, i motif) ACCCCCTGCATCTGCATGCCCCCTCCCACCCCCT; experiment: CD melting, 287 nm; conditions: Na+ (0.2 M CH3COONa); acetate pH 5; 2 µM DNA, 8 µM compound
[4] = test system: nmyc01m (DNA, i motif) ACCCCCTGCATCTTTTTGCCCCCTCCCACCCCCT; experiment: CD melting, 287 nm; conditions: Na+ (0.2 M CH3COONa); acetate pH 5; 2 µM DNA, 8 µM compound
[5] = test system: 22nt (DNA, i motif) CCCTAACCCTAACCCTAACCCT; experiment: CD melting, 287 nm; conditions: Na+ (0.2 M CH3COONa); acetate pH 5; 2 µM DNA, 8 µM compound
[6] = test system: nmyc01 (DNA, i motif) ACCCCCTGCATCTGCATGCCCCCTCCCACCCCCT; experiment: 1H NMR titration (imino protons); conditions: Na+ (sodium phosphate); pH 5.0, 25 °C; hairpin Watson-Crick signals disappear at R = 0.25
[7] = test system: nmyc01m (DNA, i motif) ACCCCCTGCATCTTTTTGCCCCCTCCCACCCCCT; experiment: 1H NMR titration (imino protons); conditions: Na+ (sodium phosphate); pH 5.0, 25 °C; no change in imino resonances
[8] = test system: 22nt (DNA, i motif) CCCTAACCCTAACCCTAACCCT; experiment: 1H NMR titration (imino protons); conditions: Na+ (sodium phosphate); pH 5.0, 25 °C; only small insignificant imino changes
[9] = test system: GG1 (DNA, G4) GGGCGGGCGCGAGGGAGGGT; experiment: fluorescence titration (alkaloid quenching); conditions: 5 mM KCl; phosphate 10 mM pH 7; overall constant of the 1:5 DNA:ligand model, not per site; non-specific binding possible
[10] = test system: DL40 (DNA, G4) GGTTTTGGCAGGGTTTTGGT; experiment: fluorescence titration (alkaloid quenching); conditions: 5 mM KCl; phosphate 10 mM pH 7; overall constant of the 1:4 DNA:ligand model, not per site; non-specific binding possible
[11] = test system: nmyc01 (DNA, i motif) ACCCCCTGCATCTGCATGCCCCCTCCCACCCCCT; experiment: fluorescence titration (alkaloid quenching); conditions: 5 mM KCl; acetate 10 mM pH 5; overall constant of the 1:4 DNA:ligand model, not per site; non-specific binding possible
[12] = test system: nmyc01m (DNA, i motif) ACCCCCTGCATCTTTTTGCCCCCTCCCACCCCCT; experiment: fluorescence titration (alkaloid quenching); conditions: 5 mM KCl; acetate 10 mM pH 5; overall constant of the 1:5 DNA:ligand model, not per site; non-specific binding possible
[13] = test system: 22nt (DNA, i motif) CCCTAACCCTAACCCTAACCCT; experiment: fluorescence titration (alkaloid quenching); conditions: 5 mM KCl; acetate 10 mM pH 5; overall constant of the 1:4 DNA:ligand model, not per site; non-specific binding possible
[14] = test system: DL40 (DNA, G4) GGTTTTGGCAGGGTTTTGGT; experiment: 1H NMR titration (imino and aromatic protons); conditions: 150 mM NaCl; sodium phosphate pH 6.8, 25 °C; new imino signals, single conformation at R ≥ 1.0
[15] = test system: ckit21T12T21 (DNA, G4) CGGGCGGGCGCTAGGGAGGGT; experiment: 1H NMR titration (imino and aromatic protons); conditions: 20 mM KCl; 5 mM KH2PO4 pH 6.9, 25 °C; stacks over external tetrads

ΔTm [1]: 1.7 °C
ΔTm [2]: 5.2 °C
ΔTm [3]: −0.3 °C
ΔTm [4]: −0.6 °C
ΔTm [5]: 0.7 °C
binding [6]: weak
binding [7]: no
binding [8]: no
Log Ka [9]: 22.39 ± 0.03
Log Ka [10]: 18.46 ± 0.05
Log Ka [11]: 18.21 ± 0.17
Log Ka [12]: 22.61 ± 0.08
Log Ka [13]: 17.64 ± 0.12
binding [14]: yes
binding [15]: yes
SMILES: COc1ccc2c(c1O)C[N+]1(C)CCc3cc4c(cc3C1C2)OCO4 (stereo not drawn)
